# “And” between values parts separate entries of the source, which are not always exact repeats. Equal entries are not always repeated. Where two headings read alike, the source gives them in different places.
# Experiments:
# [1] = PAMPA permeability assay at pH 7.4; format: in vitro ADME
# Protocol: (§1) The assays used for determining the properties of the kinase inhibitors were performed in accordance with standard procedures well known to those skilled in the art. For example, assays for determining inhibitory activity on CDKs or in cellular assays are described in WO 00/218962, WO 2005/026129, and WO 2005/063765. Solubility assays at pH 7.4 were essentially performed as described by Avdeef, A. in Pharmacokinetic Optimization in Drug Research; Testa, B.; van de Waterbeemd, H.; Folkers, G.; Guy, R. Eds.; Wiley-VHC: Zurich, 2001; pp 305-326. PAMPA permeability assays at pH 7.4 were essentially performed as described in Kansy et al., J. Med. Chem. 41: 1007-10, 1998.
# [2] = Solubility assay at pH 7.4; format: physicochemical; details: pH 7.4, aqueous buffer
# Protocol: as §1
# [3] = test system: cell lines A2780, HCT-116, HT-29, HepG2, NCI/ADR-RES, OVCAR3, H460, IMR-90, T98G, A549 among others; assay: Inhibition of proliferation in a set of cancer-model cell lines; format: cell-based; details: units (μM and nM) printed inside the value, read-out: IC50 values, inhibition of proliferation (range over cell lines)
# Protocol: as §1
# [4] = test system: human A2780 ovarian tumor cells
# Protocol: Compound P (as hydrochloric acid salt) was formulated in 30% PEG300/70% water, and Compound I (as hydrochloric acid salt) was formulated in 20% PEG300/80% D5W (5% dextrose water) and administered by oral gavage twice every day for 10 days (bid×10), while the Cytoxan control which was administered i.p. in saline every two days over a period of 10 days (q2 d×5): […]
# [5] = test system: human A2780 ovarian tumor cells; remark: listed apart in the source
# Protocol: (§2) Xenograft Tumor-Models: 100 athymic nu/nu female mice (6-8 weeks old) from CRL were allowed to acclimate for 4 days. […] The 3rd passage of cells with approximate 90% confluence was used for these experiments. Briefly, on Day 0, mice were inoculated with 0.1 ml (total 5×10^6 cells) of the respective cell-type as a cell suspension (50×10^6 cells/ml) by subcutaneous injection into the fat pad area near the mammary gland under light anesthesia. When the average tumor weight in all mice reached over 100 mg (day 10), 80 animals with an average tumor size of 130 mg were selected and were randomly divided into 8 groups.
# (§3) A 20 G gavage needle was used for the oral treatment.
# (§4) Tumor growth and body weight were monitored and recorded three times a week. Tumors were measured by determining the length and width of the tumor with a digital caliper. Tumor weight was estimated using the following formula: Tumor Weight (mg)=(w^2×1)×0.52 where w=width and l=length in mm of the tumor.
# (§5) Experimental treatment may cause partial regression (PR) or complete regression (CR) of tumors. PR is defined when the tumor size is 50% or less than the starting (day 1) size but greater than 0.0 mg for three consecutive measurements during the course of the study. CR occurs when there is no measurable tumor mass for three consecutive measurements. Cures are defined when CR are maintained until the completion of the experiment.
# (§6) Mice were sacrificed when their tumors reached the 1000 mm^3 endpoint volume. Treatment efficacy was determined as Log Cell Kill (LCK).
# (§7) Toxic deaths are defined as deaths caused by compound treatment and not by advanced disease state. […] Non-tumor related deaths after this point are recorded, but not considered toxic deaths.
# (§8) Briefly, the empirical distributions of T and Td were derived from B=1000 realisations of random selection of n individual animals with replacement from the set i=1, . . . , n of the appropriate group of mice containing n evaluable animals, estimating the mean tumor size for such selection of animals for each time-point, and linear regression analysis from a semi-log plot of such averages against time. Dead mice and mice with no measurable tumor size were treated as missing data and were ignored when calculating the average.
# [6] = test system: H460 NSCLC; details: for LCK ± CI (95%) (Td: 2.6 d) / Toxic Mortality / Max % TGI (d): H460; for Toxic Mortality: N=10; for Max % TGI (d): day 13
# Protocol: as §2, §3, §4, §5, §6, §7, §8
# [7] = test system: HCT116 colon carcinoma cells
# Protocol: as §2, §3, §4, §5, §6, §7, §8
# [8] = 30 [28] mg/kg po bidx10, day 10
# [9] = HCT116, 100 [93] mg/kg po qdx10
compound,measurement,setting,value
"CC(C)c1nn(-c2c(Cl)cccc2Cl)c2nc(Cc3ccc(CN4CCCC4)c(O)c3)[nH]c(=O)c12 [Compound P, 1-(2,6-dichlorophenyl)-6-(3-hydroxy-4-pyrrolidinomethyl-phenyl)methyl-3-isopropyl-pyrazolo[3,4-d]pyrimidin-4-one]",permeability in a PAMPA assay,[1],about 57%
same,solubility,[2],~210 µM
same,IC50,[3],0.016 to 1.6 µM
same,LCK ± CI (95%) (Td: 2.1 d),[4]; 15 [14] mg/kg po bidx10,0.20 ± 0.16 and 0.20
same,Toxic Mortality,"[4]; 15 [14] mg/kg po bidx10, N=10",0
same,Max % TGI (d),"[4]; 15 [14] mg/kg po bidx10, day 10",34 (10) %
same,Max % BW Loss (d),"[4]; 15 [14 free base] mg/kg po bidx10, HCl salt, day 6",0 (6) %
same,LCK ± CI (95%) (Td: 2.1 d),[4]; 30 [28] mg/kg po bidx10,0.44 ± 0.19 and 0.44
same,Toxic Mortality,"[4]; 30 [28] mg/kg po bidx10, N=10",0
same,Max % BW Loss (d),[4]; [8],0.1 (10) %
same,Max % TGI (d),[4]; [8],54 (10) %
same,LCK ± CI (95%) (Td: 2.1 d),[4]; 50 [47] mg/kg po bidx10,1.06 ± 0.48 and 1.06
same,Toxic Mortality,"[4]; 50 [47] mg/kg po bidx10, N=10",0
same,Max % TGI (d),"[4]; 50 [47] mg/kg po bidx10, day 13",81 (13) %
same,Max % BW Loss (d),"[4]; 50 [47] mg/kg po bidx10, day 15",4.7 (15) %
same,LCK ± CI (95%) (Td: 1.7 d),[5]; 40 [37] mg/kg po qdx10,0.34 ± 0.21 and 0.34
same,Toxic Mortality,"[5]; 40 [37] mg/kg po qdx10, N=10",0
same,Max % TGI (d),"[5]; 40 [37] mg/kg po qdx10, day 11",46.2 (11) %
same,LCK ± CI (95%) (Td: 1.7 d),[5]; 70 [65] mg/kg po qdx10,0.75 ± 0.46 and 0.75
same,Toxic Mortality,"[5]; 70 [65] mg/kg po qdx10, N=10",0
same,Max % TGI (d),"[5]; 70 [65] mg/kg po qdx10, day 11",61.1 (11) %
same,LCK ± CI (95%) (Td: 1.7 d),[5]; 100 [93] mg/kg po qdx9,1.78 ± 0.56 and 1.78
same,Toxic Mortality,[5]; 100 [93] mg/kg po qdx9,1/10
same,Max % TGI (d),"[5]; 100 [93] mg/kg po qdx9, day 11",83.9 (11) %
same,LCK ± CI (95%) (Td: 2.6 d),[6]; 40 [37] mg/kg po qdx10,0.22 ± 0.12 and 0.22
same,Toxic Mortality,[6]; 40 [37] mg/kg po qdx10,0
same,Max % TGI (d),[6]; 40 [37] mg/kg po qdx10,29.6 (13) %
same,LCK ± CI (95%) (Td: 2.6 d),[6]; 70 [65] mg/kg po qdx10,0.26 ± 0.12 and 0.26
same,Toxic Mortality,[6]; 70 [65] mg/kg po qdx10,0
same,Max % TGI (d),[6]; 70 [65] mg/kg po qdx10,33.9 (13) %
same,LCK ± CI (95%) (Td: 2.6 d),[6]; 100 [93] mg/kg po qdx10,0.54 ± 0.17 and 0.48 and 0.54
same,Toxic Mortality,[6]; 100 [93] mg/kg po qdx10,0
same,Max % TGI (d),[6]; 100 [93] mg/kg po qdx10,48.7 (13) %
same,Max % BW Loss (d),"[6]; mouse, in vivo, po",1.0 (8) % and 0% and 7.4 (13) %
same,LCK ± CI (95%) (Td: 6.8 d),"[7]; HCT116, 40 [37] mg/kg po qdx10",0.23 ± 0.11 and 0.23
same,Max % TGI (d),"[7]; HCT116, 40 [37] mg/kg po qdx10, day 20",36.2 (20) %
same,LCK ± CI (95%) (Td: 6.8 d),"[7]; HCT116, 70 [65] mg/kg po qdx10",0.41 ± 0.22 and 0.41
same,Max % TGI (d),"[7]; HCT116, 70 [65] mg/kg po qdx10, day 32",50.2 (32) %
same,LCK ± CI (95%) (Td: 6.8 d),[7]; [9],0.38 ± 0.13 and 0.38
same,Toxic Mortality,[7]; [9],1/10
same,Max % TGI (d),"[7]; HCT116, 100 [93] mg/kg po qdx10, day 16",60.1 (16) %
same,Max % BW Loss (d),"[7]; mouse, in vivo, po",17.3 (16) %
"O=P1(N(CCCl)CCCl)NCCCO1 (stereo not shown) [Cytoxan, cyclophosphamide]",LCK ± CI (95%) (Td: 2.1 d),[4]; 100 mg/kg ip q2dx5,3.56 ± 0.43 and 3.56
same,Cure,"[4]; 100 mg/kg ip q2dx5, N=10",0
same,Toxic Mortality,"[4]; 100 mg/kg ip q2dx5, N=10",0
same,Max % BW Loss (d),"[4]; 100 mg/kg ip q2dx5, day 10",5.9 (10) %
same,Max % TGI (d),"[4]; 100 mg/kg ip q2dx5, day 13",98 (13) %
same,CR,"[4]; 100 mg/kg ip q2dx5, mice with complete regression, N=10",5
same,PR,"[4]; 100 mg/kg ip q2dx5, mice with partial regression, N=10",5

# — patent US8304418B2, “Pyrazolopyrimidinone kinase inhibitor” (Agennix AG, priority 2007, dated 2012)
